Measured values taken from PubChem BioAssay AID1963960 (Molecular Pharmacology Branch, DTP, NCI, 2024).

Test system: MDA-MB-468 spheroids with HUVEC/MSC, viability
Test: Anticancer human tumor MDA-MB-468 cell line growth inhibition [PI3K];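 further: spheroids exposed to agents for seven days before readout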;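 on viability, T/C: 100% = DMSO vehicle control viability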
Details: for IC50: curve of first compound; for viability, T/C: stronger effect = lower value
How it was run: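 Targeted small molecules plus PI3K inhibitors, half-log dose series from Cmax (default top 10 microM), were applied to heterotypic spheroids of cancer cells with HUVEC and MSCs. Viability indicated growth inhibition.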

[1] = second compound 0.00316 µM, first compound 0.0316 µM
[2] = second compound 0.00316 µM, first compound 0.1 µM
[3] = second compound 0.00316 µM, first compound 0.316 µM
[4] = second compound 0.00316 µM, first compound 1 µM
[5] = second compound 0.00316 µM, first compound 3.16 µM
[6] = second compound 0.00316 µM, first compound 10 µM
[7] = second compound 0.01 µM, first compound 0.0316 µM
[8] = second compound 0.01 µM, first compound 0.1 µM
[9] = second compound 0.01 µM, first compound 0.316 µM
[10] = second compound 0.01 µM, first compound 1 µM
[11] = second compound 0.01 µM, first compound 3.16 µM
[12] = second compound 0.01 µM, first compound 10 µM
[13] = second compound 0.0316 µM, first compound 0.0316 µM
[14] = second compound 0.0316 µM, first compound 0.1 µM
[15] = second compound 0.0316 µM, first compound 0.316 µM
[16] = second compound 0.0316 µM, first compound 1 µM
[17] = second compound 0.0316 µM, first compound 3.16 µM
[18] = second compound 0.0316 µM, first compound 10 µM
[19] = second compound 0.1 µM, first compound 0.0316 µM
[20] = second compound 0.1 µM, first compound 0.1 µM
[21] = second compound 0.1 µM, first compound 0.316 µM
[22] = second compound 0.1 µM, first compound 1 µM
[23] = second compound 0.1 µM, first compound 3.16 µM
[24] = second compound 0.1 µM, first compound 10 µM
[25] = second compound 0.316 µM, first compound 0.0316 µM
[26] = second compound 0.316 µM, first compound 0.1 µM
[27] = second compound 0.316 µM, first compound 0.316 µM
[28] = second compound 0.316 µM, first compound 1 µM
[29] = second compound 0.316 µM, first compound 3.16 µM
[30] = second compound 0.316 µM, first compound 10 µM
[31] = second compound 1 µM, first compound 0.0316 µM
[32] = second compound 1 µM, first compound 0.1 µM
[33] = second compound 1 µM, first compound 0.316 µM
[34] = second compound 1 µM, first compound 1 µM
[35] = second compound 1 µM, first compound 3.16 µM
[36] = second compound 1 µM, first compound 10 µM

C#Cc1c(F)ccc2cc(O)cc(-c3ncc4c(N5CC6CCC(C5)N6)nc(OCC56CCCN5CC(F)C6)nc4c3F)c12 (stereo unspecified) + CC(Nc1ccc2c(c1)OCCn1cc(N3C(=O)OCC3C(F)F)nc1-2)C(N)=O
IC50 (second compound 0.00316 µM): > 10 µM | IC50 (second compound 0.01 µM): > 10 µM | IC50 (second compound 0.0316 µM): 8.92 µM | IC50 (second compound 0.1 µM): 8 µM | IC50 (second compound 0.316 µM): 5.19 µM | IC50 (second compound 1 µM): 4.48 µM | viability, T/C [1]: 94.9% | viability, T/C [2]: 91% | viability, T/C [3]: 86% | viability, T/C [4]: 91.5% | viability, T/C [5]: 88.2% | viability, T/C [6]: 53.4% | viability, T/C [7]: 95.7% | viability, T/C [8]: 103% | viability, T/C [9]: 83.3% | viability, T/C [10]: 82% | viability, T/C [11]: 89.2% | viability, T/C [12]: 55.1% | viability, T/C [13]: 91.4% | viability, T/C [14]: 84.9% | viability, T/C [15]: 88.3% | viability, T/C [16]: 81.2% | viability, T/C [17]: 81.9% | viability, T/C [18]: 46.5% | viability, T/C [19]: 84% | viability, T/C [20]: 76.7% | viability, T/C [21]: 72.1% | viability, T/C [22]: 75.5% | viability, T/C [23]: 73.9% | viability, T/C [24]: 44.4% | viability, T/C [25]: 93.1% | viability, T/C [26]: 72% | viability, T/C [27]: 81.1% | viability, T/C [28]: 64.5% | viability, T/C [29]: 65.7% | viability, T/C [30]: 36.4% | viability, T/C [31]: 89.1% | viability, T/C [32]: 75.4% | viability, T/C [33]: 82.1% | viability, T/C [34]: 70.3% | viability, T/C [35]: 59.2% | viability, T/C [36]: 31.3%

C=CC(=O)N1CCN(c2nc(=O)n(-c3c(C)ccnc3C(C)C)c3nc(-c4c(O)cccc4F)c(F)cc23)C(C)C1 (stereo unspecified) + CC(Nc1ccc2c(c1)OCCn1cc(N3C(=O)OCC3C(F)F)nc1-2)C(N)=O
IC50 (second compound 0.00316 µM): > 10 µM | IC50 (second compound 0.01 µM): > 10 µM | IC50 (second compound 0.0316 µM): > 10 µM | IC50 (second compound 0.1 µM): > 10 µM | IC50 (second compound 0.316 µM): > 10 µM | IC50 (second compound 1 µM): 7.86 µM | viability, T/C [1]: 85.4% | viability, T/C [2]: 92.4% | viability, T/C [3]: 98.7% | viability, T/C [4]: 107% | viability, T/C [5]: 98.3% | viability, T/C [6]: 82.5% | viability, T/C [7]: 91.3% | viability, T/C [8]: 101% | viability, T/C [9]: 82.3% | viability, T/C [10]: 101% | viability, T/C [11]: 97.3% | viability, T/C [12]: 73% | viability, T/C [13]: 92.5% | viability, T/C [14]: 95.3% | viability, T/C [15]: 87.1% | viability, T/C [16]: 86.8% | viability, T/C [17]: 96.4% | viability, T/C [18]: 66.1% | viability, T/C [19]: 104% | viability, T/C [20]: 82.5% | viability, T/C [21]: 87.4% | viability, T/C [22]: 102% | viability, T/C [23]: 86% | viability, T/C [24]: 59.6% | viability, T/C [25]: 84.5% | viability, T/C [26]: 66.2% | viability, T/C [27]: 76.4% | viability, T/C [28]: 91.4% | viability, T/C [29]: 93.6% | viability, T/C [30]: 55.9% | viability, T/C [31]: 82.6% | viability, T/C [32]: 93.9% | viability, T/C [33]: 77.8% | viability, T/C [34]: 84.7% | viability, T/C [35]: 64% | viability, T/C [36]: 46.3%

CC(Cn1ccc(-c2ccc(C#N)c(Cl)c2)n1)NC(=O)c1cc(C(C)O)[nH]n1 (stereo unspecified) + CC(Nc1ccc2c(c1)OCCn1cc(N3C(=O)OCC3C(F)F)nc1-2)C(N)=O
IC50 (second compound 0.00316 µM): > 10 µM | IC50 (second compound 0.01 µM): > 10 µM | IC50 (second compound 0.0316 µM): > 10 µM | IC50 (second compound 0.1 µM): > 10 µM | IC50 (second compound 0.316 µM): > 10 µM | IC50 (second compound 1 µM): > 10 µM | viability, T/C [1]: 104% | viability, T/C [2]: 84.3% | viability, T/C [3]: 107% | viability, T/C [4]: 99.4% | viability, T/C [5]: 101% | viability, T/C [6]: 88.6% | viability, T/C [7]: 102% | viability, T/C [8]: 93.8% | viability, T/C [9]: 79.3% | viability, T/C [10]: 90% | viability, T/C [11]: 94.6% | viability, T/C [12]: 77.8% | viability, T/C [13]: 101% | viability, T/C [14]: 79.7% | viability, T/C [15]: 92.5% | viability, T/C [16]: 90% | viability, T/C [17]: 88.4% | viability, T/C [18]: 72.1% | viability, T/C [19]: 114% | viability, T/C [20]: 82.2% | viability, T/C [21]: 80.4% | viability, T/C [22]: 102% | viability, T/C [23]: 94.8% | viability, T/C [24]: 65% | viability, T/C [25]: 88.5% | viability, T/C [26]: 77.7% | viability, T/C [27]: 96.1% | viability, T/C [28]: 85.1% | viability, T/C [29]: 69.9% | viability, T/C [30]: 64.5% | viability, T/C [31]: 93% | viability, T/C [32]: 72.7% | viability, T/C [33]: 89% | viability, T/C [34]: 78.8% | viability, T/C [35]: 66.5% | viability, T/C [36]: 68%
